# Experimental data reported in ChEMBL document CHEMBL1201862, “PubChem BioAssay data set” (2004).
# Activity calls are given as the source filed them.
# Experiments:
# Bcl-2-related protein A1 = molecular target: T1, Bcl-2-related protein A1 (Mus musculus, UniProt Q07440); assay type: functional;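 note: confirmatory dose–response counterscreen on Bfl-1, used to check hits from a UBC13 polyubiquitin inhibitor campaign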
# T1 sequence (Q07440 whole entry): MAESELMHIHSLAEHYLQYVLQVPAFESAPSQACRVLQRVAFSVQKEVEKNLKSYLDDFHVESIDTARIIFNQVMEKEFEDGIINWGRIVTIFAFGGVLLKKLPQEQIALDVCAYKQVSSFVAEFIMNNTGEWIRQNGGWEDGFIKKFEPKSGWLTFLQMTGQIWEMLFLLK
# [1] = molecular target: T2, Histone-lysine N-methyltransferase NSD2 (Homo sapiens, UniProt O96028); assay type: biochemical
# T2 sequence (O96028 whole entry): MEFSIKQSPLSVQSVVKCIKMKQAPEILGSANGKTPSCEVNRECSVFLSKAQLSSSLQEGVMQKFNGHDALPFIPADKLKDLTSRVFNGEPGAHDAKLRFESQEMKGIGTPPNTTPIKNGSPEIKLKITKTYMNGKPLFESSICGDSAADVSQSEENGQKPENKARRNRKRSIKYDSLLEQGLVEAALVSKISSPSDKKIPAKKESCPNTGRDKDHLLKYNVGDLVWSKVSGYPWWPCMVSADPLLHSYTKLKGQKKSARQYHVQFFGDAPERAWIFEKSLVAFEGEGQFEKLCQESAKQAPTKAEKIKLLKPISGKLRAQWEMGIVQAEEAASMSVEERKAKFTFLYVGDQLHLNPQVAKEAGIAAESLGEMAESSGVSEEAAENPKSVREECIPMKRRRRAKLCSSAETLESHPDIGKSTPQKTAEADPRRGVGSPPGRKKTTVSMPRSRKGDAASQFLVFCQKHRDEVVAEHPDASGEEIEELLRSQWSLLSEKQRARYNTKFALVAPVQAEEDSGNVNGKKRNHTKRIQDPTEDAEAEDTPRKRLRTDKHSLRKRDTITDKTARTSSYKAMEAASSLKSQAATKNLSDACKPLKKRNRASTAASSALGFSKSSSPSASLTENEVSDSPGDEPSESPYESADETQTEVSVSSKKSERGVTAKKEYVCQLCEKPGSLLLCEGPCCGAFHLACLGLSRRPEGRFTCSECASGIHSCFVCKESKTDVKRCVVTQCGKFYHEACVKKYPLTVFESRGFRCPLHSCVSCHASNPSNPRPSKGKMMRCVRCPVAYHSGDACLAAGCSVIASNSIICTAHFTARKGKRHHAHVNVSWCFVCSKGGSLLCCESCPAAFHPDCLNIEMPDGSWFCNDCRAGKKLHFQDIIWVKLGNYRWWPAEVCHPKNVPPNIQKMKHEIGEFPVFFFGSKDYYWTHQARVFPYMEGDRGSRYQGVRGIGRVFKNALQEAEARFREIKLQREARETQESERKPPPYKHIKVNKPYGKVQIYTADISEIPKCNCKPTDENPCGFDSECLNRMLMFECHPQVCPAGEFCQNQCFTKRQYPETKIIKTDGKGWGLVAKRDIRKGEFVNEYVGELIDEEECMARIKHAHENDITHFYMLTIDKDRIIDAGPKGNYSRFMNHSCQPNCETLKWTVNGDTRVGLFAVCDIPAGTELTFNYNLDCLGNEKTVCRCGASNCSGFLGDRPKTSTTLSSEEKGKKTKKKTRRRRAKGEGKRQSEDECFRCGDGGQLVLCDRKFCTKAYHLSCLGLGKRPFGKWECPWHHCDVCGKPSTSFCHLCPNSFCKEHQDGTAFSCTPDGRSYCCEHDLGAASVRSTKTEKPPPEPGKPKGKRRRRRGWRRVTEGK
Structure (SMILES),IC50 (Bcl-2-related protein A1),AC50 [1]
CCCCCCCCCCOC(=O)C[n+]1c(COc2ccccc2OC)n(C)c2ccccc21,18.4 µM (active),–
O=c1ccc2c(-c3ccccc3S(=O)(=O)O)c3ccc(O)c(O)c3oc-2c1O [PYROGALLOL RED],–,0.146 µM (active)
